Data on 16 compounds can be found in patent publication US11753407B2, “Compounds for treating spinal muscular atrophy” (PTC Therapeutics, Inc., priority 2012, dated 2023).

The melting point is the temperature, or range, at which the solid turns liquid.

Data set [1] concerns SMN2 minigene mRNA (SMN2-A minigene) in HEK293H cells. Nature of the data set: SMN2 minigene mRNA splicing RT-qPCR assay in cultured cells. Type of data set: cell-based, human. As to conditions: Homo sapiens, HEK293-H; concentration increasing full length SMN2 mRNA 1.5-fold relative to vehicle-treated cells; HEK293H cells with SMN2-A minigene, 24 hours, 7-point concentration data; read-out: EC1.5x for production of full length SMN2 mRNA. In outline:
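EC1.5× values derive from a 24 h treatment of SMN2-A minigene HEK293H cells and GAPDH-normalized RT-qPCR of exon 7-included minigene mRNA relative to vehicle-treated cells.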
Background: Quantitative PCR measures a nucleic acid by following its amplification.

The test system of data set [2] is Smn protein in SMA patient fibroblast cells (GM03813). Nature of the data set: Smn protein assay in cultured cells (SMN HTRF). Type of data set: cell-based, human. The note with it: SMA patient fibroblast cells, 48 hours; for EC1.5x for Smn protein expression: 7-point concentration curve, SMN HTRF, concentration producing 1.5 times Smn protein vs DMSO vehicle control; for maximum fold (Fold) increase of Smn protein: 7-point concentration data, fold relative to vehicle control. In outline:
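Cells were cultured 72 h, seeded at 5,000/well and dosed with seven concentrations (3.16-fold apart) for 48 h. HTRF on lysates, read at 665 and 620 nm, gave blank-corrected ΔF values relative to DMSO. Potency is reported as EC1.5×, efficacy as maximal fold Smn increase.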
For orientation: TR-FRET usually uses a lanthanide donor and a delayed reading to cut background.

Compound `Cc1cn2nc(-c3cc(=O)n4cc(N5CCN(C)CC5)ccc4n3)cc2cn1` [Compound 440, 7-(4-methylpiperazin-1-yl)-2-(6-methylpyrazolo[1,5-a]pyrazin-2-yl)-4H-pyrido[1,2-a]pyrimidin-4-one] yielded a melting point of 230 to 240 °C. In addition, in data set [1], the EC (1.5-fold increase) is under 0.1 µM. Further, in data set [2], the “EC1.5x for Smn protein expression” value is recorded as “**** (an EC1.5x≤0.3 μM is indicated by four stars (****))”; the “maximum fold (Fold) increase of Smn protein” value (shortened to “maximum fold (Fold) increase”) is “**** (a fold increase between >1.5 and ≤1.65 is indicated by four stars (****))”.

In turn, `CCc1cc(-c2cc(=O)n3cc(N4CCN[C@H](C)C4)ccc3n2)cn2cc(C)nc12` [Compound 638, 2-(8-ethyl-2-methylimidazo[1,2-a]pyridin-6-yl)-7-[(3R)-3-methylpiperazin-1-yl]-4H-pyrido[1,2-a]pyrimidin-4-one] yielded a melting point of 230 to 234 °C. Further, the EC (1.5-fold increase) in data set [1] is under 0.1 µM. Moreover, in data set [2], the “EC1.5x for Smn protein expression” value is listed as “**** (an EC1.5x≤0.3 μM is indicated by four stars (****))” and the “maximum fold (Fold) increase” value is “***** (a fold increase >1.65 is indicated by five stars (*****))”.

`CC[C@H]1CN(c2cc(C)c3nc(-c4cc5c(C)nc(C)cn5n4)cc(=O)n3c2)CCN1` [Compound 732, 2-(4,6-dimethylpyrazolo[1,5-a]pyrazin-2-yl)-7-[(3S)-3-ethylpiperazin-1-yl]-9-methyl-4H-pyrido[1,2-a]pyrimidin-4-one] showed a melting point of 243 to 251 °C. Also, the EC (1.5-fold increase) in data set [1] was in the range of 0.3 to 1 µM. Moreover, in data set [2], the “EC1.5x for Smn protein expression” value is “*** (an EC1.5× between >0.3 μM and ≤1 μM is indicated by three stars (***))”; the “maximum fold (Fold) increase” value is “**** (a fold increase between >1.5 and ≤1.65 is indicated by four stars (****))”.

`Cc1cn2cc(-c3cc(=O)n4cc(N5C[C@@H](C)N[C@@H](C)C5)ccc4n3)cc(C(F)(F)F)c2n1` [Compound 736, 7-[(3R,5S)-3,5-dimethylpiperazin-1-yl]-2-[2-methyl-8-(trifluoromethyl)imidazo[1,2-a]pyridin-6-yl]-4H-pyrido[1,2-a]pyrimidin-4-one] displayed a melting point of 293 to 296 °C. Also, in data set [1], the EC (1.5-fold increase) is under 0.1 µM. In addition, in data set [2], the “EC1.5x for Smn protein expression” value was “**** (an EC1.5x≤0.3 μM is indicated by four stars (****))” and the “maximum fold (Fold) increase” value was “***** (a fold increase >1.65 is indicated by five stars (*****))”.

With `COc1ccc(-c2cc(=O)n3cc(N4CCNCC4)ccc3n2)cc1[N+](=O)[O-]` [Compound 167, 2-(4-methoxy-3-nitrophenyl)-7-(piperazin-1-yl)-4H-pyrido[1,2-a]pyrimidin-4-one], the melting point is 183 to 187 °C. For the same compound, in data set [1], the EC (1.5-fold increase) is under 0.1 µM. In addition, in data set [2], the “EC1.5x for Smn protein expression” value is “** (an EC1.5× between >1 μM and ≤3 μM is indicated by two stars (**))”; the “maximum fold (Fold) increase” value was “*** (a fold increase between >1.35 and ≤1.5 is indicated by three stars (***))”.

In the case of `Cc1cn2cc(-c3cc(=O)n4cc(N5C[C@@H](C)N[C@@H](C)C5)ccc4n3)cc(C3CC3)c2n1` [Compound 717, 2-(8-cyclopropyl-2-methylimidazo[1,2-a]pyridin-6-yl)-7-[(3R,5S)-3,5-dimethylpiperazin-1-yl]-4H-pyrido[1,2-a]pyrimidin-4-one], the melting point is 205 to 209 °C. In data set [1], the EC (1.5-fold increase) was in the range of 0.1 to 0.3 µM. In data set [2], the “EC1.5x for Smn protein expression” value is “*** (an EC1.5× between >0.3 μM and ≤1 μM is indicated by three stars (***))”; the “maximum fold (Fold) increase” value was “***** (a fold increase >1.65 is indicated by five stars (*****))”.

For `COc1ccc(-c2cc(=O)n3cc(N4CCC(N(C)C)CC4)ccc3n2)cc1F` [Compound 185, 7-[4-(dimethylamino)piperidin-1-yl]-2-(3-fluoro-4-methoxyphenyl)-4H-pyrido[1,2-a]pyrimidin-4-one], the melting point lay within 196 to 201 °C. In addition, the EC (1.5-fold increase) in data set [1] is under 0.1 µM. Moreover, in data set [2], the “maximum fold (Fold) increase” value is “*** (a fold increase between >1.35 and ≤1.5 is indicated by three stars (***))”.

Consider `Cc1cn2nc(-c3cc(=O)n4cc(N5CCN[C@H](C)C5)ccc4n3)cc2cn1` [Compound 472, 7-[(3R)-3-methylpiperazin-1-yl]-2-(6-methylpyrazolo[1,5-a]pyrazin-2-yl)-4H-pyrido[1,2-a]pyrimidin-4-one], for which the melting point is 240 to 244 °C. Moreover, the EC (1.5-fold increase) in data set [1] is under 0.1 µM. Also, in data set [2], the “EC1.5x for Smn protein expression” value is reported as “**** (an EC1.5x≤0.3 μM is indicated by four stars (****))” and the “maximum fold (Fold) increase” value is reported as “***** (a fold increase >1.65 is indicated by five stars (*****))”.

In the case of `COc1ccc(-c2cc(=O)n3cc(N4CC[C@H](N)C4)ccc3n2)cc1OC` [Compound 159, 7-[(3S)-3-aminopyrrolidin-1-yl]-2-(3,4-dimethoxyphenyl)-4H-pyrido[1,2-a]pyrimidin-4-one], the melting point lay in the range of 148 to 151 °C. Moreover, in data set [1], the EC (1.5-fold increase) is 1 to 3 µM. Besides, the “maximum fold (Fold) increase” value in data set [2] is “*** (a fold increase between >1.35 and ≤1.5 is indicated by three stars (***))”.

`Cn1ncc2cc(-c3cc(=O)n4cc(C5CCN(CCO)CC5)ccc4n3)ccc21` [Compound 605, 7-[1-(2-hydroxyethyl)piperidin-4-yl]-2-(1-methyl-1H-indazol-5-yl)-4H-pyrido[1,2-a]pyrimidin-4-one] registered a melting point of 204 to 206 °C. For the same compound, in data set [1], the EC (1.5-fold increase) fell in the range of 0.3 to 1 µM. Also, in data set [2], the “EC1.5x for Smn protein expression” value was “*** (an EC1.5× between >0.3 μM and ≤1 μM is indicated by three stars (***))”; the “maximum fold (Fold) increase” value is “***** (a fold increase >1.65 is indicated by five stars (*****))”.

The compound `Cc1cn2nc(-c3cc(=O)n4cc(C5CCN(C6COC6)CC5)ccc4n3)cc2c(C)n1` [Compound 600, 2-(4,6-dimethylpyrazolo[1,5-a]pyrazin-2-yl)-7-[1-(oxetan-3-yl)piperidin-4-yl]-4H-pyrido[1,2-a]pyrimidin-4-one] showed a melting point of 150 to 152 °C. For the same compound, the EC (1.5-fold increase) in data set [1] was 0.1 to 0.3 µM. Besides, in data set [2], the “EC1.5x for Smn protein expression” value was “** (an EC1.5× between >1 μM and ≤3 μM is indicated by two stars (**))”; the “maximum fold (Fold) increase” value is “**** (a fold increase between >1.5 and ≤1.65 is indicated by four stars (****))”.

The compound `Cc1nc2c(F)cc(-c3cc(=O)n4cc(C5=CCNCC5)ccc4n3)cc2o1` [Compound 299, 2-(4-fluoro-2-methyl-1,3-benzoxazol-6-yl)-7-(1,2,3,6-tetrahydropyridin-4-yl)-4H-pyrido[1,2-a]pyrimidin-4-one] returned a melting point of 177 to 180 °C. In addition, the EC (1.5-fold increase) in data set [1] was under 0.1 µM. In addition, in data set [2], the “EC1.5x for Smn protein expression” value is “**** (an EC1.5x≤0.3 μM is indicated by four stars (****))” and the “maximum fold (Fold) increase” value is recorded as “***** (a fold increase >1.65 is indicated by five stars (*****))”.

`CCc1cc(-c2cc(=O)n3cc(N4CCN(CCO)CC4)ccc3n2)cn2cc(C)nc12` [Compound 647, 2-(8-ethyl-2-methylimidazo[1,2-a]pyridin-6-yl)-7-[4-(2-hydroxyethyl)piperazin-1-yl]-4H-pyrido[1,2-a]pyrimidin-4-one]: the melting point was in the range of 248 to 253 °C. Besides, in data set [1], the EC (1.5-fold increase) is under 0.1 µM. Further, in data set [2], the “EC1.5x for Smn protein expression” value is recorded as “**** (an EC1.5x≤0.3 μM is indicated by four stars (****))” and the “maximum fold (Fold) increase” value is “***** (a fold increase >1.65 is indicated by five stars (*****))”.

In turn, `Cc1cn2cc(-c3cc(=O)n4cc(N5CCN(C6CCC6)[C@@H](C)C5)ccc4n3)cc(Cl)c2n1` [Compound 536, 2-(8-chloro-2-methylimidazo[1,2-a]pyridin-6-yl)-7-[(3S)-4-cyclobutyl-3-methylpiperazin-1-yl]-4H-pyrido[1,2-a]pyrimidin-4-one] registered a melting point of 228 to 232 °C. Further, the EC (1.5-fold increase) in data set [1] is under 0.1 µM. Also, in data set [2], the “EC1.5x for Smn protein expression” value is “**** (an EC1.5x≤0.3 μM is indicated by four stars (****))”; the “maximum fold (Fold) increase” value was “**** (a fold increase between >1.5 and ≤1.65 is indicated by four stars (****))”.

For the compound `COc1ccc(-c2cc(=O)n3cc(C4=CCNCC4)ncc3n2)cc1OC` [Cpd 402, 2-(3,4-dimethoxyphenyl)-7-(1,2,3,6-tetrahydropyridin-4-yl)-4H-pyrazino[1,2-a]pyrimidin-4-one], the melting point was 205 to 208 °C. Further, the EC (1.5-fold increase) in data set [1] is under 0.1 µM. In data set [2], the “EC1.5x for Smn protein expression” value was “** (an EC1.5× between >1 μM and ≤3 μM is indicated by two stars (**))”; the “maximum fold (Fold) increase” value is “**** (a fold increase between >1.5 and ≤1.65 is indicated by four stars (****))”.

`Cc1cn2cc(-c3cc(=O)n4cc(C5CCN(C(C)C)CC5)ncc4n3)cc(Cl)c2n1` [Compound 595, 2-(8-chloro-2-methylimidazo[1,2-a]pyridin-6-yl)-7-[1-(propan-2-yl)piperidin-4-yl]-4H-pyrazino[1,2-a]pyrimidin-4-one] returned a melting point of 243 to 245 °C. Further, in data set [1], the EC (1.5-fold increase) was under 0.1 µM. Also, in data set [2], the “EC1.5x for Smn protein expression” value is “**** (an EC1.5x≤0.3 μM is indicated by four stars (****))”; the “maximum fold (Fold) increase” value is “**** (a fold increase between >1.5 and ≤1.65 is indicated by four stars (****))”.
